Data: US9309285B2, “Macrocyclic broad spectrum antibiotics” (priority 2012, dated 2016)
Like-named read-outs stand apart in the source and are kept apart here.

Columns and labels:
S. aureus SPase = molecular target: T1, S. aureus SPase (Staphylococcus aureus, UniProt P0A070); assay: SPase enzyme inhibition assay, fluorogenic peptide substrate, S. aureus; type: biochemical
T1 construct: Full length His-tagged E. coli and S. aureus SPase proteins were expressed in E. coli BL21; His tag; made in house; host or cells: E. coli BL21 (DE3)
T1 sequence (P0A070 1-191): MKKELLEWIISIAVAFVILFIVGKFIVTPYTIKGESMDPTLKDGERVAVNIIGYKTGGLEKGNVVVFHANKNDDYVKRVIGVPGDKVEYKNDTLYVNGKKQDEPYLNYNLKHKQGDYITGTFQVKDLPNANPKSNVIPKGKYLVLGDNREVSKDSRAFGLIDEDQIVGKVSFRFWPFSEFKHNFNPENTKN
Experimental: (§1) Briefly, for expression of E. coli SPase, saturated overnight cultures grown in 20 ml of Luria-Bertani medium supplemented with ampicillin were subcultures into 1.5 L of Luria-Bertani, and shaken at 37° C. until an optical density at 600 nm of 0.4-0.5 was achieved. […] S. aureus SPase was expressed and purified similarly, with the following exceptions. […] Resin bound protein was washed in a similar buffer containing 1% Elugent in place of Triton X-100 prior to protein elution in wash buffer supplemented with 300 mM imidazole. […] All protein concentrations were determined by BCA assay.
(§2) Enzyme master solution was prepared by diluting Escherichia coli or Staphylococcus aureus SPase protein into reaction buffer to a final concentration of 3 nM or 10 nM respectively. Reaction buffer consisted of 20 mM NaKHPO4 pH 7.4, 100 mM NaCl, and 1% v/v Elugent™ detergent. Reactions were initiated by the addition of substrate to a final concentration of 20 μM. Reaction progress was monitored by measuring the increase in fluorescence signal (excitation at 314 nm, emission at 416 nm) using a SpectraMax M2 fluorescence microplate reader. […] Three-folder serial dilutions of test compounds, starting at 10 μM, were prepared in enzyme mix solution and incubated at room temperature for 10 minutes. Following this incubation, fluorogenic substrate was added to a final concentration of 20 μM and the increase in fluorescence, corresponding to substrate cleavage, was monitored continuously at room temperature for 1 hour. Initial reaction rates were calculated based on the rate of increase in fluorescence during the reaction. Reaction rates were plotted as a function of compound concentration, and IC50 values were determined nonlinear regression analysis (SoftMaxPro 5.4, Molecular Devices™) of the sigmoidal dose-response curve.

[1] = test system: Methicillin Resistant Staphylococcus aureus strain USA 300 (NRS384); assay: MIC by broth micro-dilution (CLSI), S. aureus; type: cell-based; conditions: MRSA USA 300 (NRS384), cation adjusted Mueller Hinton Broth + 0.002% Tween-80, 35° C., 22 hours; for MIC: Staphylococcus aureus, MRSA / NRS 384 / USA300, read-out: MIC (μg/mL) S. aureus
Experimental: (§3) In vitro antimicrobial activity of each compound was determined by measuring minimal inhibitor concentrations (MICs) using the broth micro-dilution technique as approved by the Clinical and Laboratory Standards Institute (CLSI) (Methods for Dilution Antimicrobial Susceptibility Tests for Bacteria that Grow Aerobically; Approved Standard—Eighth Edition. CLSI document M07-A8. Wayne, Pa.: Clinical and Laboratroy Standards; 2009). Antibacterial activity was measure against two strains of bacteria: a Methicillin Resistant Staphylococcus aureus strain USA 300 (NRS384) and a strain of Escherichia coli MC4100 harboring the IMP4213, which results in increased outer-membrane permeability (B Martin and Silhavy T. Imp/OstA is required for cell envelope biogenesis in Escherichia coli. (2002) Molecular Microbiology, 45(5), 1289-1302). Cells were inoculated onto plates of Trypyticase Soy Agar or Luria Agar respectively and grown at 35° C. for 20 hours. Inocula suspensions were prepared by scraping cells into 1 ml of testing media (cation adjusted Mueller Hinton Broth supplemented with 0.002% v/v Tween-80) and diluting to a final OD600 nm of 0.01.
Test compounds were prepared in DMSO at a concentration of 10 mg/ml. These compound stocks were diluted into testing media at a concentration of 64 μg/ml and serial 2-fold dilutions were made in the same media, in 96-well U bottom microtiter dishes, for a total of 10 compound concentrations. Inocula suspensions were added to the 2-fold serial dilutions of test compounds to a final density of OD OD600 nm of 0.0005 and incubated at 35° C. for 22 hours.

E. coli SPase = molecular target: T2, E. coli SPase (Escherichia coli, UniProt P00803); assay: SPase enzyme inhibition assay, fluorogenic peptide substrate, E. coli; type: biochemical
T2 construct: Full length His-tagged E. coli and S. aureus SPase proteins were expressed in E. coli BL21; His tag; made in house; host or cells: E. coli BL21 (DE3)
T2 sequence (P00803 whole entry): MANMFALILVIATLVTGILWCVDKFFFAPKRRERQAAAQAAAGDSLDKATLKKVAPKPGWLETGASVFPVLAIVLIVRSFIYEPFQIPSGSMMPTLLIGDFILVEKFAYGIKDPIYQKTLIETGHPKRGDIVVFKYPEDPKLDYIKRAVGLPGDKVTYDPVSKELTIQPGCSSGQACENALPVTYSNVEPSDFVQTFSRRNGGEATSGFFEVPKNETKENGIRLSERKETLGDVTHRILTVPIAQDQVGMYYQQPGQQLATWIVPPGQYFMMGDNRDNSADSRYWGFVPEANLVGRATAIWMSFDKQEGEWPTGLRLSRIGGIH
Experimental: as §1, §2

[2] = test system: Escherichia coli MC4100 harboring the IMP4213; assay: MIC by broth micro-dilution (CLSI), E. coli; type: cell-based; conditions: E. coli MC4100 IMP4213 (increased outer-membrane permeability); cation adjusted Mueller Hinton Broth + 0.002% Tween-80; 35° C., 22 hours
Experimental: as §3
Test compounds were prepared in DMSO at a concentration of 10 mg/ml. […]

[3] = 3 nM E. coli SPase, 20 μM substrate, 10 minutes pre-incubation, room temperature, read-out: IC 50 (nM) E. coli
[4] = read-out: IC 50 (nM) S. aureus, 10 nM S. aureus SPase, 20 μM substrate, 10 minutes pre-incubation, room temperature

SMILES	IC50 (S. aureus SPase) [nM]	MIC [1] [µg/mL]	IC50 (E. coli SPase; [3]) [nM]	IC50 (E. coli SPase) [nM]	MIC (μg/mL) E. coli [2] [µg/mL]	IC50 (S. aureus SPase; 10 nM S. aureus SPase, 20 μM substrate, 10 minutes pre-incubation, room temperature, read-out: IC 50 (nM) S. aureus) [nM]	MIC (μg/mL) S. aureus [1] [µg/mL]	IC50 (S. aureus SPase; [4]) [nM]
CCCCc1ccc(-c2ccc(C(=O)NC(C)CC(=O)N[C@@H](CCCCN)C(=O)N(C)[C@@H]3C(=O)N[C@@H](C)C(=O)N[C@H](C(=O)O)Cc4ccc(O)c(c4)-c4cc3ccc4O)cc2)cc1 (stereo partly shown) [Compound 106]	8.8	2	2.9	–	–	–	–	–
C[C@@H]1NC(=O)[C@@H](N(C)C(=O)[C@H](CCCCN)NC(=O)c2ccc(-c3ccc(Cl)cc3)cc2)c2ccc(O)c(c2)-c2cc(ccc2O)C[C@@H](C(=O)N[C@@H](C)C(=O)N2CCC[C@H]2C(N)=O)NC1=O [Compound 132]	5.9	6.1	–	26	–	–	–	–
CCCCc1ccc(-c2ccc(C(=O)N[C@@H](C)CC(=O)N[C@@H](CCCCN)C(=O)N(C)[C@@H]3C(=O)N[C@@H](C)C(=O)N[C@H](C(=O)O)Cc4ccc(O)c(c4)-c4cc3ccc4O)cc2)cc1 [Compound 107]	2.6	11	0.6	–	–	–	–	–
CCCCc1ccc(-c2ccc(C(=O)N[C@@H](CCCCN)C(=O)N[C@H]3COCCCCOCC[C@@H](C(=O)N[C@@H](C)B4O[C@@H]5C[C@@H]6C[C@@H](C6(C)C)[C@]5(C)O4)NC(=O)[C@H](C)NC3=O)cc2)cc1 [Compound 207]	210	1.3	21	–	–	–	–	–
CCCCc1ccc(-c2ccc(C(=O)NCC(C)C(=O)N[C@@H](CCN)C(=O)N(C)[C@@H]3C(=O)N[C@@H](C)C(=O)N[C@H](C(=O)O)Cc4ccc(O)c(c4)-c4cc3ccc4O)cc2)cc1 (single isomer, unassigned) [Compound 114]	2200	64	730	–	–	–	–	–
CCCCc1ccc(-c2ccc(C(=O)NCC(=O)N[C@@H](CCCCN)C(=O)N(C)[C@@H]3C(=O)N[C@@H](C)C(=O)N[C@H](C(=O)O)Cc4ccc(O)c(c4)-c4cc3ccc4O)cc2)cc1 [Compound 108]	110	8	2.4	–	–	–	–	–
CCCCc1ccc(-c2ccc(CC(=O)NCCC(=O)N[C@@H](CCCCN)C(=O)N(C)[C@@H]3C(=O)N[C@@H](C)C(=O)N[C@H](C(=O)O)Cc4ccc(O)c(c4)-c4cc3ccc4O)cc2)cc1 [Compound 101]	30	6.3	5.4	–	–	–	–	–
CCCCc1ccc(-c2ccc(C(=O)N(C)[C@@H]3C(=O)N[C@@H](C)C(=O)N[C@H](C(=O)O)Cc4ccc(O)c(c4)-c4cc3ccc4O)cc2)cc1 [Compound 116]	> 10000	> 64	> 10000	–	–	–	–	–
CCCCc1ccc(-c2ccc(C(=O)NCCC(=O)N(C)[C@@H]3C(=O)N[C@@H](C)C(=O)N[C@H](C(=O)O)Cc4ccc(O)c(c4)-c4cc3ccc4O)cc2)cc1 [Compound 112]	7200	> 64	850	–	–	–	–	–
CCCCc1ccc(-c2ccc(C(=O)N[C@H](C)C(=O)N[C@@H](CCCCN)C(=O)N(C)[C@@H]3C(=O)N[C@@H](C)C(=O)N[C@H](C(=O)O)Cc4ccc(O)c(c4)-c4cc3ccc4O)cc2)cc1 [Compound 102]	280	10	11	–	–	–	–	–
CCCCc1ccc(-c2ccc(C(=O)NCC(C)C(=O)N[C@@H](CCN)C(=O)N(C)[C@@H]3C(=O)N[C@@H](C)C(=O)N[C@H](C(=O)O)Cc4ccc(O)c(c4)-c4cc3ccc4O)cc2)cc1 (single isomer, unassigned) [Compound 115]	–	–	630	–	>64	1900	64	–
CCCCc1ccc(-c2ccc(C(=O)N[C@@H](CCCCN)C(=O)NCCC(=O)N(C)[C@@H]3C(=O)N[C@@H](C)C(=O)N[C@H](C(=O)O)Cc4ccc(O)c(c4)-c4cc3ccc4O)cc2)cc1 [Compound 117]	3900	> 64	760	–	–	–	–	–
CCCCc1ccc(-c2ccc(C(=O)N[C@@H](CCCCN)C(=O)N(C)[C@@H]3C(=O)N[C@@H](C)C(=O)N[C@H](C(=O)N[C@@H](C)B4O[C@@H]5C[C@@H]6C[C@@H](C6(C)C)[C@]5(C)O4)Cc4ccc(O)c(c4)-c4cc3ccc4O)cc2)cc1 [Compound 121]	110	0.71	29	–	–	–	–	–
CCCCCCCCCCCCCC(=O)NCCC(=O)N[C@@H](CCCCN)C(=O)N(C)[C@@H]1C(=O)N[C@@H](C)C(=O)N[C@H](C(=O)O)Cc2ccc(O)c(c2)-c2cc1ccc2O [Compound 105]	16	0.63	1.3	–	–	–	–	–
CCCCc1ccc(-c2ccc(C(=O)NC[C@@H](C)C(=O)N[C@@H](CCCCN)C(=O)N(C)[C@@H]3C(=O)N[C@@H](C)C(=O)N[C@H](C(=O)O)Cc4ccc(O)c(c4)-c4cc3ccc4O)cc2)cc1 [Compound 103]	8	2.1	1.3	–	–	–	–	–
CCCCc1ccc(-c2ccc(C(=O)N[C@@H](CCCCN)C(=O)N[C@H]3COCCCCC[C@@H](C(=O)N[C@@H](C)B(O)O)NC(=O)[C@H](C)NC3=O)cc2)cc1 [Compound 205]	–	2.8	30	–	–	–	–	280
C[C@@H]1NC(=O)[C@@H](N(C)C(=O)[C@H](CCCCN)NC(=O)c2ccc(-c3ccc(Cl)cc3)cc2)c2ccc(O)c(c2)-c2cc(ccc2O)C[C@@H](C(=O)N[C@@H](C)C=O)NC1=O [Compound 134]	8.2	10	0.8	–	–	–	–	–
CCCCCCCC(=O)N[C@@H](CCCCN)C(=O)N(C)[C@@H]1C(=O)N[C@@H](C)C(=O)N[C@H](C(=O)NCB2O[C@@H]3C[C@@H]4C[C@@H](C4(C)C)[C@]3(C)O2)Cc2ccc(O)c(c2)-c2cc1ccc2O [Compound 126]	130	32	–	13	–	–	–	–
CCCCc1ccc(-c2ccc(C(=O)N[C@@H](CCCCN)C(=O)N[C@H]3COCCCCC[C@@H](C(=O)N[C@@H](C)B4OC5C[C@@H]6C[C@@H](C6(C)C)[C@]5(C)O4)NC(=O)[C@H](C)NC3=O)cc2)cc1 (stereo partly shown) [Compound 204]	–	1.4	25	–	–	–	–	250
CCCCc1ccc(-c2ccc(C(=O)NCC(C)C(=O)N[C@@H](CCCN)C(=O)N(C)[C@@H]3C(=O)N[C@@H](C)C(=O)N[C@H](C(=O)O)Cc4ccc(O)c(c4)-c4cc3ccc4O)cc2)cc1 (stereo partly shown) [Compound 113]	69	4	3.6	–	–	–	–	–
CCCCc1ccc(-c2ccc(C(=O)NC[C@@H](N)C(=O)N[C@@H](CCCCN)C(=O)N(C)[C@@H]3C(=O)N[C@@H](C)C(=O)N[C@H](C(=O)O)Cc4ccc(O)c(c4)-c4cc3ccc4O)cc2)cc1 [Compound 109]	15	> 64	11	–	–	–	–	–
